From PMC9147171, “Pharmacokinetic/Pharmacodynamic Evaluation of a New Purine-2,6-Dione Derivative in Rodents with Experimental Autoimmune Diseases” (Pharmaceutics, 2022)

Legend:
[1] = test system: collagen-induced arthritis (CIA) in rats; test: Collagen-induced arthritis (CIA) in rats, PK/PD arthritis progression model; format: in vivo, female Lewis rats
Experimental: Female Lewis rats were subcutaneously injected at the base of the tail with the emulsion prepared according to the protocol supplied by Chondrex, Inc. (Redmond, WA, USA) at days 0 and 7 of the experiment. To obtain the emulsion, porcine collagen type II (Chondrex, Inc.) (2 mg/mL) in 0.05 M acetic acid was emulsified with incomplete Freund’s adjuvant (Sigma-Aldrich, St. Louis, MO, USA) using a homogenizer with a small blade (LabGen 125, Cole-Parmer, Vernon Hills, IL, USA). On day 20, the animals that developed symptoms of arthritis, i.e., paw swelling above 150% of day 0, were randomly divided into two groups: the control group receiving vehicle alone (n = 6) and the study group treated with the investigated compound at a dose of 20 mg·kg^−1, IP once daily for 21 days (n = 6). Relative paw edema of arthritic rats was measured using a digital caliper according to the procedure described by Earp et al. up to 40 days after the first immunization and then the animals were sacrificed. In addition, the body weight of animals was monitored. After randomization on day 20, using the Mann–Whitney U test, it was verified that there is no significant difference in paw size between the groups.
A previously developed PK/PD model of arthritis progression in rats was utilized in this study (Figure 2). The model was described in detail in our previous publication. Originally, this model was used to assess and compare the effects of a PDE4-selective inhibitor rolipram and two non-selective PDE inhibitors, namely GRMS-55 and lisofylline in CIA in female Lewis rats.
Briefly, the model assumes that PDE inhibitors act by suppressing the production of a precursor of arthritis progression. This is in line with the actual mechanism of anti-inflammatory action of PDE inhibitors that exert their effects by inhibiting the transcription of pro-inflammatory mediators, which participate in the arthritis development. […] Therefore, it was feasible to compare the potency of compound 34 and other PDE inhibitors that were evaluated in our previous study. […]

[2] = test system: ConA-induced hepatitis in mice; test: ConA-induced hepatitis in mice; format: in vivo, BALB/c mice; conditions: 50 mg·kg^−1 IP 30 min prior to ConA
Experimental: ConA was dissolved in saline for injection at a concentration of 2 mg·mL^−1. The mice were given IP doses of compound 34 or the equivalent volume of vehicle (control group) and, 30 min later, animals were given an IV injection of ConA (20 mg·kg^−1) via tail vein. An additional group of mice was given vehicle alone IP followed by an IV injection of saline. The mice were sacrificed by exsanguination at 2, 8, and 24 h post-ConA dosing. Blood samples were collected and handled as described above.
Serum aspartate transaminase (AST) and alanine transaminase (ALT) activities were analyzed using the chemistry analyzer BS-800 (Shenzhen Mindray Bio-medical Electronics Co., Ltd., Shenzhen, China). Cytokine levels in mouse serum (TNFα, IL-4, IL-6, and interferon (IFN)γ) were quantified by a Magnetic Luminex® Assay (R&D Systems, Inc, Minneapolis, MN, USA) using a Magpix platform (Luminex Corp., Austin, TX, USA).

Cn1c(=O)c2c(nc(NCCc3ccccc3)n2CCCC(=O)NN=Cc2ccc(O)c(O)c2O)n(C)c1=O [Compound 34, 4-(1,3-dimethyl-2,6-dioxo-8-(phenethylamino)-2,3,6,7-tetrahydro-1H-purin-7-yl)-N′-(2,3,4-trihydroxybenzylidene)butanehydrazide]
Relative body weight, experimental vs control group ([1]; 20 mg·kg^−1 IP once daily for 21 days): not significantly different | IC50_Paw in suppressing paw edema, times lower than that for rolipram ([1]; PK/PD model, rolipram value from ref 28): 10 times | IC50_Paw, times lower than that for GRMS-55 ([1]; same PK/PD model, GRMS-55 value from ref 28): around 260 times | serum IFNγ level compared to the control group ([2]; 2 h after ConA injection): not significantly different | serum IL-4 concentration, lower compared to the control group ([2]; 2 h after ConA injection): 76% | serum IL-6 level compared to the control group ([2]; 2 h after ConA injection): not significantly different | serum TNFα concentration, lower compared to the control group ([2]; 2 h after ConA injection): 34% | ALT serum activity, reduction compared to the control group ([2]; 8 h post-ConA injection): 73% | AST serum activity, reduction compared to the control group ([2]; 8 h post-ConA injection): 59% | serum IFNγ concentration, lower compared to the control group ([2]; 24 h post-ConA dosing): 36% | serum IL-4 level, treatment vs control group ([2]; 24 h post-ConA dosing): not different | serum IL-6 level, treatment vs control group ([2]; 24 h post-ConA dosing): not different
